Data set [1] concerns the target T1, PI5P4Kα (Homo sapiens, UniProt P48426).
T1 construct: gift from Daiichi Sankyo Co., Ltd. and Daiichi Sankyo RD Novare Co., Ltd
Kind of data set: Cell-free PI5P4Kα activity assay (ADP-Glo). It is filed as biochemical. The settings on record: 1 h pre-incubation; PI(5)P 20 μM, ATP 10 μM; read-out: IC50, kinase activity of purified PI5P4Kα in vitro. On the technique in general: ADP-Glo first removes unused ATP, then detects ADP through luciferase.
Method: For cell-free PI5P4Kα activity assays, serial dilutions of compounds were pre-incubated with 1 ng of PI5P4Kα (kind gift from Daiichi Sankyo Co., Ltd. and Daiichi Sankyo RD Novare Co., Ltd.) in reaction buffer [50 mM HEPES (pH 7.0), 13 mM MgCl2, 0.005% CHAPS, 0.01% BSA, 2.5 mM DTT] for 1 h at 25° C. DOPS (80 μM, Avanti polar lipids), PI(5)P (20 μM, Echelon) and ATP (10 μM, Sigma-Aldrich) were added and further incubated for 90 min at room temperature. PI5P4Kα activity was measured by recording luminescent signals (Tecan) using an ADP-Glo Kinase Assay (Promega) according to the manufacturer's protocol.

Data set [2] concerns PIK3IP1. Kind of data set: qRT-PCR of PIK3IP1 mRNA in Ras- or Raf-mutant cancer cell lines. The settings on record: U0126 and/or SCH772984, 24 h. It is filed as cell-based, human. Here is the method: […] human […] ID NO: 11, [NT] ID NO: 12), human […] ID NO: 13, [NT] ID NO: 14), human […] ID NO: 15, [NT] ID NO: 16) and human PIK3IP1 ([NT] ID NO: 17, [NT] ID NO: 18). The TATA-binding protein (TBP) gene was used for normalization. All PCR reactions were performed in triplicate.
For orientation: In qPCR the cycle at which signal appears reflects the starting amount.

Data set [3] has as its system normal and transformed BJ cells. Kind of data set: a131 SAR analysis: pH3(Ser10) immunoblot, BrdU incorporation, subG1 FACS. It counts as cell-based, human. Also on record: key: Group 1: possess the dual-inhibitory properties of both causing the arrest of normal BJ cells at the G1/S phase and also causing mitotic arrest/catastrophe in transformed BJ cells; Group 2: only cause the arrest of normal BJ cells at the G1/S phase; Group 3: cause mitotic arrest/catastrophe in transformed BJ cells, but do not arrest normal BJ cells at the G1/S phase; Group 4: are inactive or weakly active. The settings on record: 5 μM, 48 h. Here is the method: (§1) Cell death was assessed via Annexin V and/or PI (propidium iodide) staining according to the manufacturer's instructions (eBioscience). Cell growth arrest was assessed by direct measurement of DNA synthesis through incorporation of the nucleoside analog bromodeoxyuridine (BrdU). Briefly, BrdU (30 μM, Sigma-Aldrich) was added for 2 h before harvesting cells. Cells were subsequently stained with Pacific Blue-conjugated BrdU antibody (Invitrogen) for 1 h followed by PI staining. Stained cells were analyzed by MACSQuant (MACS). Three independent experiments were performed in triplicate. The percentage of Annexin V/PI- or BrdU-positive cells was quantified using Flow Jo software (Becton Dickinson). Where indicated, the combined activity of caspase-3/7 was determined using the caspase-Glo 3/7 Assay Kit (Promega) and normalized to the number of viable cells as determined by MTT assay.
Total cell lysates were prepared with 1% triton lysis buffer [25 mM Tris HCl (pH 8.0), 150 mM NaCl, 1% triton-X100, 1 mM dithiothreitol (DTT), protease inhibitor mix (Complete Mini, Roche) and phosphatase inhibitor (PhosphoStop, Roche)] and subjected to SDS-PAGE. The following antibodies were used for immunoblotting: anti-β-actin (Sigma-Aldrich), anti-cleaved PARP (Abcam, #ab32064), anti-PI5P4Kα (#5527), anti-PI5P4Kβ (#9694), anti-cleaved caspase-3 (#9664), anti-pHistone H3(Ser10) (#3377), anti-pAkt(S473) (#9271), anti-pAkt(T308) (#13038), anti-total Akt (#9272), anti-p70S6K(T389) (#9234), anti-total p70S6K (#9202), anti-pErk (#4370), anti-γ-Histone H2AX (#9718) (Cell signaling) and anti-PIK3IP1 (Proteintech, #16826-1-AP). The secondary antibodies used were sheep anti-mouse IgG HRP and donkey anti-rabbit IgG HRP (Amersham; 1:2000 dilution). Immunoreactive proteins were visualized using ECL reagent (Amersham). Where indicated, intensities of protein bands were quantified by densitometry (Odyssey V3.0), normalized to their loading controls and then calculated as fold expression change relative to DMSO control.
A general note: A western blot detects proteins with antibodies after separation by electrophoresis.

The test system of data set [4] is HCT-15 human colon adenocarcinoma cells. Kind of data set: HCT-15 tumor xenograft in nude mice. It counts as in vivo, mouse. The settings on record: for antitumor activity (tumor volume): a131 20 mg/kg, b5 40-80 mg/kg, 12 days, paclitaxel IV. The text has this: BALB/c athymic female nude mice (nu/nu, 5-7 weeks) (InVivos) were kept under specific pathogen-free (SPF) conditions. The care and use of mice was approved by the Duke-NUS IACUC in accordance with protocol 2015/SHS/1030. HCT15 human colon cancer cells (5×10^6) or MDA-MB-231 human breast cancer cells (4×10^6 with Matrigel) were subcutaneously injected into the flanks of mice. When the mean tumor volume reached 100-300 mm^3 (Day 1), the mice were randomly divided into experimental groups of 6 mice by an algorithm that moves animals around to achieve the best case distribution to assure that each treatment group has similar mean tumor burden and standard deviation. No statistical method was used to predetermine sample size. […] Paclitaxel (Cayman Chemical) was dissolved in ethanol:Tween 80=1:3 (v/v) solution followed by the addition of a 5% glucose solution (final ratio, ethanol:Tween 80:5% glucose=5:15:80) and injected via the tail vain (IV). Tumor dimensions were measured using calipers, and tumor volume (mm^3) was calculated using the formula width^2×length/2 in a blinded fashion. On Day 12 (HCT15) or Day 16 (MDA-MB-231), mice were sacrificed. Tumors were collected, fixed overnight in 4% paraformaldehyde (PFA) and stored in 70% ethanol. For immunostaining, antigens were retrieved from formaldehyde-fixed, paraffin-embedded tumor tissue sections for 30 min by boiling in sodium citrate buffer (pH 6.0) using a microwave histoprocessor (Milestone). Endogenous peroxidase activity in tissue sections was depleted by treatment with 3% hydrogen peroxide (H2O2 in 1×TBS) for 20 min at room temperature. Tumor tissue sections were incubated overnight with anti-β-tubulin (Abcam; 1:100 in 3% BSA/TBS-Tween 20) at 4° C. followed by incubation with goat anti-rabbit FITC-conjugated secondary antibody (Invitrogen; 1:200 in 3% BSA/TBS) for 1 h at 25° C. After dehydration treatment, coverslips were mounted using DAPI mounting medium (Vector). Images were acquired in 3D-SIM mode using a super resolution microscope (Nikon), and the number of cells with either 2 or mitotic-spindles was quantified (n>50 cells per section, 6-7 sections per treatment). For detection of apoptosis using the TUNEL method, the ApopTag Plus Peroxidase In Situ Apoptosis Detection Kit (Millipore) was used for formaldehyde-fixed, paraffin-embedded tumor tissue sections treated with b5 (80 mg/kg, IP) or control vehicle for 12 days. Slide scans were acquired using a MetaSystems Metafer built on a Zeiss Axiolmager Z.2 upright microscope. The system is equipped with a CoolCubel camera and a Zeiss Plan-Neofluar 20×/0.5 Ph2 objective lens. Image acquisition was controlled with Metafer4 software, and stitching was performed with the VSlide software and further processed using the open source software FIJI. A custom macro was used to batch process the images in the following sequence: Gaussian filter, color deconvolution of hematoxylin and DAB, thresholding the hematoxylin image, watershed to separate touching nuclei, and then count the number of hematoxylin-stained nuclei. For the DAB image, a fixed threshold was used, watershed applied and the number of DAB stained nuclei counted. In all cases, no data or animals were excluded and results are expressed as mean and standard deviation of the mean.

Data set [5] relates to MDA-MB-231 human breast tumor cells. Put plainly: MDA-MB-231 tumor xenograft in nude mice. It is filed as in vivo, mouse. The settings on record: a131 20 mg/kg, b5 40-80 mg/kg, PO or IP twice daily, 15 days. From the text: BALB/c athymic female nude mice (nu/nu, 5-7 weeks) (InVivos) were kept under specific pathogen-free (SPF) conditions. The care and use of mice was approved by the Duke-NUS IACUC in accordance with protocol 2015/SHS/1030. HCT15 human colon cancer cells (5×10^6) or MDA-MB-231 human breast cancer cells (4×10^6 with Matrigel) were subcutaneously injected into the flanks of mice. When the mean tumor volume reached 100-300 mm^3 (Day 1), the mice were randomly divided into experimental groups of 6 mice by an algorithm that moves animals around to achieve the best case distribution to assure that each treatment group has similar mean tumor burden and standard deviation. No statistical method was used to predetermine sample size. […] Tumor dimensions were measured using calipers, and tumor volume (mm^3) was calculated using the formula width^2×length/2 in a blinded fashion. […] Images were acquired in 3D-SIM mode using a super resolution microscope (Nikon), and the number of cells with either 2 or mitotic-spindles was quantified (n>50 cells per section, 6-7 sections per treatment). […] For the DAB image, a fixed threshold was used, watershed applied and the number of DAB stained nuclei counted. In all cases, no data or animals were excluded and results are expressed as mean and standard deviation of the mean.

Data set [6] relates to normal and transformed BJ cells. Kind of data set: Crystal violet / MTT viability of isogenic normal and transformed BJ cells. The settings on record: 72 h; crystal violet and MTT (0.1-40 μM).
Data set [7] shares this test system. Put plainly: Chemoprotection: a166 pre-treatment followed by a159, paclitaxel or etoposide. It is filed as cell-based, human. The settings on record: without a166 pre-treatment. The protocol: as §1

T1 sequence (P48426 whole entry): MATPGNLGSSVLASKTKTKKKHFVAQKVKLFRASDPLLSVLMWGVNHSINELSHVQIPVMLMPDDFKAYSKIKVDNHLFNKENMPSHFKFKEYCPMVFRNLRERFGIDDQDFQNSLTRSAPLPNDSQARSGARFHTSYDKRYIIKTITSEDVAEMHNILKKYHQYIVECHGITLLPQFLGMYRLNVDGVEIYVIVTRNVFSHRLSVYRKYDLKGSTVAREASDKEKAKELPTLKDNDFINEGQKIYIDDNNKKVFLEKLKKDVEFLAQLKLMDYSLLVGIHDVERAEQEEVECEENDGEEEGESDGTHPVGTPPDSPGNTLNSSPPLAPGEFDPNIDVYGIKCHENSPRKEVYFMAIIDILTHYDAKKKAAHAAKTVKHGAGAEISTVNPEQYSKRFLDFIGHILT

`COc1cc(/C=C(\C#N)C(=O)c2ccc(O)c(O)c2)cc(I)c1O` [I-OMe-AG-538]: the IC50 (commonly the midpoint of a concentration-inhibition curve) in data set [1] came to 2100 nM.
For `O=C(Nc1ccc2[nH]nc(-c3ccncc3)c2c1)[C@@H]1CCN(CC(=O)N2CCN(c3ccc(-c4ncccn4)cc3)CC2)C1` [SCH772984], the “PIK3IP1 mRNA expression after MEK/ERK inhibition” value in data set [2] is “attenuates Ras- and Raf-mediated suppression of PIK3IP1”.
In the case of `N#CC(=C(/N)Sc1ccccc1N)/C(C#N)=C(\N)Sc1ccccc1N` [U0126], in data set [2], the “PIK3IP1 mRNA expression after MEK/ERK inhibition” value is “attenuates Ras- and Raf-mediated suppression of PIK3IP1”.
Take `N#C/C(=C\c1cncc2ccccc12)c1c[nH]c2ccccc12` [a132]: the “Group (a131 SAR analysis)” value in data set [3] is recorded as “Group 4”.
Consider `N#C/C(=C\c1cccc2cccnc12)c1c[nH]c2ccccc12` [a158], for which the “Group (a131 SAR analysis)” value in data set [3] is reported as “Group 2”.
In the case of `N#C/C(=C\c1cccc2ncccc12)c1c[nH]c2ccccc12` [a159], the “Group (a131 SAR analysis)” value in data set [3] is recorded as “Group 3”.
For the molecule `N#C/C(=C\c1cccc2cnccc12)c1c[nH]c2ncccc12` [a167], the “Group (a131 SAR analysis)” value in data set [3] is “Group 4”.
Turning to `N#C/C(=C\c1cccc2cnccc12)c1nc2ccccc2[nH]1` [a169], in data set [3], the “Group (a131 SAR analysis)” value was “Group 4”.
As to `CN1CCN(CC(=O)n2cc(/C(C#N)=C/c3cccc4cnccc34)c3ccccc32)CC1` [b5, (Z)-3-(isoquinolin-5-yl)-2-(1-(2-(4-methylpiperazin-1-yl)acetyl)-1H-indol-3-yl)acrylonitrile], the “cancer cell death in tumor sections (TUNEL staining)” value in data set [4] (HCT-15 tumor sections, Day 12, b5 80 mg/kg IP) is recorded as “cancer cell death as determined by TUNEL staining”. Besides, the “antitumor activity (tumor volume)” value in data set [4] (PO or IP twice daily) and in data set [5] was “marked antitumor efficacies” in each case. Further, the body weight loss entry in data set [4] (xenograft-bearing mice, PO or IP twice daily) is “without any body weight loss”. Further, the “Group (a131 SAR analysis)” value in data set [3] was “Group 1”.
As for `CC(=O)NCCC(=O)n1cc(/C(C#N)=C/c2cccc3cnccc23)c2ccccc21` [b9], the “Group (a131 SAR analysis)” value in data set [3] is on record as “Group 1”.
With `N#C/C(=C\c1cccc2cnccc12)c1c[nH]c2ccc(OCCCN3CCCC3)cc12` [b12], the “Group (a131 SAR analysis)” value in data set [3] is “Group 2”.
`COCCOc1ccc2[nH]cc(/C(C#N)=C/c3cccc4cnccc34)c2c1` [b16]: the “Group (a131 SAR analysis)” value in data set [3] is on record as “Group 2”.
As for `CN1CCN(C(=O)Cn2cc(/C(C#N)=C/c3cccc4cnccc34)c3ccccc32)CC1` [b94], in data set [3], the “Group (a131 SAR analysis)” value was “Group 2”.
Consider `COC(=O)Nc1nc2ccc(C(=O)c3cccs3)cc2[nH]1` [nocodazole], for which the “selective killing of transformed versus normal BJ cells (cell viability)” value in data set [6] is recorded as “showed minimal selectivity”.
Consider `CC(=O)O[C@H]1C(=O)[C@@]2(C)[C@H]([C@H](OC(=O)c3ccccc3)[C@]3(O)C[C@H](OC(=O)[C@H](O)[C@@H](NC(=O)c4ccccc4)c4ccccc4)C(C)=C1C3(C)C)[C@]1(OC(C)=O)CO[C@@H]1C[C@@H]2O` [paclitaxel], for which the “antitumor activity (tumor volume)” value in data set [4] (PO or IP twice daily) is “did not show significant antitumor activity”. The “selectivity against transformed BJ cells, treatment alone” value in data set [7] is reported as “showed minimal selectivity against transformed BJ cells”. Further, in data set [6], the “selective killing of transformed versus normal BJ cells (cell viability)” value is on record as “showed minimal selectivity”.
